{
  "source": "patent US12090225B2",
  "about": "(Avalyn Pharma Inc., priority 2018, dated 2024)",
  "key": {"[1]": {"assay": "Disproportionation/hydration studies (pH, XRPD pattern)", "type": "physicochemical", "conditions": "for pH Pre-Agitation: listed as HBr salt", "text": "No XRPD data could be compiled on the hydration or disproportionation of the salt due to the high solubility in water and acetone/water mixtures.\nThe salt only remained Pattern 1 at 0.3 aw. New patterns 6 and 7 are likely hydrated due to the high water activity conditions for production."}, "parenchymal collagen": {"test_system": "parenchymal collagen", "assay": "Therapeutic silica model: parenchymal collagen (Picrosirius Red)", "type": "in vivo, C57BL/6 mice", "conditions": "silica mice", "description": "Briefly, acclimated 20-22 g female C57BL/6 mice were administered silica on day 1 by the intratracheal route. On the tenth day, treatment was initiated with either saline or nintedanib. […] Sham and silica control groups received saline either IN or PO. Five animals were enrolled into sham groups, 10 animals enrolled into each PO dose groups, and 13 animals were enrolled into each IN dosing group. […] Body weights were collected throughout the study, with lung weights at termination. Flexivent was performed to determine elastance (lung function; Table 59). Left lungs were extracted, stained as assessed for parenchymal collagen (Table 60) and α-smooth muscle actin (αSMA; Table 61), while right lungs were assessed for interleukin-1β (IL-1β; Table 62). […] collagen was measured by Picrosirius Red (PSR) histopathological analysis. […] Due to the positive impact on other key fibrosis modulators (αSMA, IL-1β; Tables 61 and 62) and that silica-induced fibrosis was well-established prior to start of dosing, it is possible that extending the treatment time would ultimately impact parenchymal collagen."}, "[2]": {"test_system": "silica pulmonary fibrosis", "assay": "Therapeutic silica pulmonary fibrosis model: lung function (elastance, Flexivent)", "type": "in vivo, C57BL/6 mice", "conditions": "silica mice", "quoted_text": "Sham and silica control groups received saline either IN or PO. Five animals were enrolled into sham groups, 10 animals enrolled into each PO dose groups, and 13 animals were enrolled into each IN dosing group. […] Body weights were collected throughout the study, with lung weights at termination. Flexivent was performed to determine elastance (lung function; Table 59). […] The ventilator determined the elastance of each lung as a measure of lung stiffness/fibrosis by inflating the lungs and assessing changes in flow and pressure."}, "[3]": {"test_system": "α-smooth muscle actin (αSMA)", "assay": "Therapeutic silica model: lung α-smooth muscle actin", "type": "in vivo, C57BL/6 mice", "conditions": "silica mice", "description": "(§1) Briefly, acclimated 20-22 g female C57BL/6 mice were administered silica on day 1 by the intratracheal route. On the tenth day, treatment was initiated with either saline or nintedanib. […] Sham and silica control groups received saline either IN or PO. Five animals were enrolled into sham groups, 10 animals enrolled into each PO dose groups, and 13 animals were enrolled into each IN dosing group. […] Body weights were collected throughout the study, with lung weights at termination. Flexivent was performed to determine elastance (lung function; Table 59). Left lungs were extracted, stained as assessed for parenchymal collagen (Table 60) and α-smooth muscle actin (αSMA; Table 61), while right lungs were assessed for interleukin-1β (IL-1β; Table 62). Alpha-smooth muscle actin (αSMA) is a marker of myofibroblast, a key cell type present in fibrotic diseases, including IPF, and is required for production and deposition of collagen."}, "[4]": {"assay": "Formulation development/optimization and long-term stability of nintedanib HBr and HCl formulations"}, "[5]": {"test_system": "bleomycin pulmonary fibrosis", "assay": "Therapeutic bleomycin pulmonary fibrosis model: Ashcroft fibrosis score, hydroxyproline", "type": "in vivo, Sprague Dawley rats", "description": "Briefly, acclimated Sprague Dawley male rats (c.a. 253 grams at first dosing) were administered bleomycin on days 1, 2, 3 and 6 by the oropharyngeal (OP) route. On the eighth day, treatment was initiated with either saline or nintedanib. […] Ten animals were enrolled into each dosing group. […] All animals were euthanized on day 28d. Body weights were collected throughout the study, with lung weights at termination (Table 55). Left lungs were extracted and measured for hydroxyproline content, while […] were subjected to histology for Ashcroft fibrosis score determination (Table 56)."}, "interleukin-1β (IL-1β)": {"test_system": "interleukin-1β (IL-1β)", "assay": "Therapeutic silica model: lung interleukin-1β", "type": "in vivo, C57BL/6 mice", "conditions": "silica mice", "description": "as §1"}, "[6]": {"assay": "Dynamic Vapour Sorption (DVS) hygroscopicity", "type": "physicochemical", "conditions": "for DVS mass uptake at 90% RH: 25° C., uptake from input material; for Hygroscopicity: DVS", "description": "Dynamic Vapour Sorption (DVS). Approximately, 10 mg of sample was placed into a mesh vapour sorption balance pan and loaded into a DVS-1 or DVS Advantage dynamic vapour sorption balance by Surface Measurement Systems. The sample was subjected to a ramping profile from 40-90% relative humidity (RH) at 10% increments, maintaining the sample at each step until a stable weight had been achieved (dm/dt 0.004%, minimum step length 30 minutes, maximum step length 500 minutes) at 25° C. After completion of the sorption cycle, the sample was dried using the same procedure to 0% RH and then a second sorption cycle back to 40% RH. Two cycles were performed. The weight change during the sorption/desorption cycles were plotted, allowing for the hygroscopic nature of the sample to be determined. XRPD analysis was then carried out on any solid retained."}, "[7]": {"assay": "Feasibility assessment of ready-to-use nintedanib HBr, HCl and esylate formulations", "type": "physicochemical", "conditions": "NaCl at 30 mM or higher concentrations"}, "[8]": {"assay": "Therapeutic bleomycin model: body weight gain, lung weight-to-body weight ratio, tolerability", "conditions": "bleomycin rats"}, "[9]": {"assay": "Plasma and lung pharmacokinetics of nintedanib esylate, oral vs intratracheal aerosol", "type": "in vivo, C57BL/6 mice", "conditions": "for Lung Cmax / plasma AUC as fraction of the 100 mg/kg oral dose: mice"}, "[10]": {"conditions": "Oral Gavage (PO) 30 mg/kg BID, lung"}, "[11]": {"conditions": "OP 0.05 mg/kg QD, bleomycin rats"}, "[12]": {"conditions": "OP 0.25 mg/kg QD, bleomycin rats"}, "[13]": {"conditions": "OP 0.375 mg/kg QD, bleomycin rats"}, "[14]": {"conditions": "oral nintedanib HBr 30 mg/kg BID"}},
  "note": "Like-named read-outs stand apart in the source and are kept apart here. Marks after values point to notes of the source that are not given here.",
  "data": [
    {"smiles": "COC(=O)c1ccc2c(c1)NC(=O)/C2=C(\\Nc1ccc(N(C)C(=O)CN2CCN(C)CC2)cc1)c1ccccc1", "note": "[Nintedanib HBr]", "values": [
      {"measurement": "Pattern (disproportionation/hydration)", "setting": "[1]; Water Activity 0.3", "result": 1},
      {"measurement": "pH Pre-Agitation", "setting": "[1]; Water Activity 0.3 (acetone/water)", "result": 4.84},
      {"measurement": "Pattern (disproportionation/hydration)", "setting": "[1]; Water Activity 0.6", "result": 4},
      {"measurement": "pH Pre-Agitation", "setting": "[1]; Water Activity 0.6 (acetone/water)", "result": 5.38},
      {"measurement": "Pattern (disproportionation/hydration)", "setting": "[1]; Water Activity 0.9", "result": "New pattern (Pattern 6)"},
      {"measurement": "pH Pre-Agitation", "setting": "[1]; Water Activity 0.9 (acetone/water)", "result": 5.56},
      {"measurement": "Pattern (disproportionation/hydration)", "setting": "[1]; Water Activity 1", "result": "New pattern (Pattern 7)"},
      {"measurement": "pH Pre-Agitation", "setting": "[1]; Water Activity 1.0 (water)", "result": 2.27},
      {"measurement": "Parenchymal Collagen, Delta to Vehicle (%)", "setting": "parenchymal collagen; Oral Gavage (PO) 30 mg/kg BID", "result": 15.6, "unit": "%"},
      {"measurement": "Parenchymal Collagen", "setting": "parenchymal collagen; Oral Gavage (PO) 30 mg/kg BID, Picrosirius Red", "result": 0.74},
      {"measurement": "Elastance, Delta to Vehicle (%)", "setting": "[2]; Oral Gavage (PO) 30 mg/kg BID", "result": "−122.2", "unit": "%"},
      {"measurement": "Elastance, Sham Subtracted", "setting": "[2]; Oral Gavage (PO) 30 mg/kg BID", "result": "−0.2"},
      {"measurement": "αSMA (%)", "setting": "[3]; [10]", "result": 22.8, "unit": "%"},
      {"measurement": "αSMA, Delta to Vehicle (%)", "setting": "[3]; Oral Gavage (PO) 30 mg/kg BID, p < 0.005", "result": "−47.7^b %"},
      {"measurement": "compatibility with citric acid, fumaric acid", "setting": "[4]", "result": "incompatible"},
      {"measurement": "upper concentration limit (no re-crystallization)", "setting": "[4]", "result": 1.38, "unit": "mg/mL"},
      {"measurement": "Fibrosis Score (SD) (Ashcroft)", "setting": "[5]; [11]", "result": "2.7 (0.94)"},
      {"measurement": "Fibrosis Score, Delta to Vehicle (%)", "setting": "[5]; [11]", "result": "−12.5", "unit": "%"},
      {"measurement": "Fibrosis Score (SD) (Ashcroft)", "setting": "[5]; [12]", "result": "2.1 (0.97)"},
      {"measurement": "Fibrosis Score, Delta to Vehicle (%)", "setting": "[5]; [12]", "result": 12.5, "unit": "%"},
      {"measurement": "Fibrosis Score (SD) (Ashcroft)", "setting": "[5]; [13]", "result": "1.9 (0.48)"},
      {"measurement": "Fibrosis Score, Delta to Vehicle (%)", "setting": "[5]; [13]", "result": 20.8, "unit": "%"},
      {"measurement": "IL-1β, Delta to Vehicle (%)", "setting": "interleukin-1β (IL-1β); Oral Gavage (PO) 30 mg/kg BID", "result": "−1.5", "unit": "%"},
      {"measurement": "IL-1β", "setting": "interleukin-1β (IL-1β); [10]", "result": 1001.0, "unit": "pg/mL"},
      {"measurement": "DVS mass uptake at 90% RH", "setting": "[6]; listed as HBr salt", "result": "ca. 4.5%"},
      {"measurement": "Hygroscopicity", "setting": "[6]; listed as HBr", "result": "Hygroscopic"},
      {"measurement": "Post-DVS XRPD pattern", "setting": "[6]; listed as HBr salt", "result": "remain unchanged"},
      {"measurement": "compatibility with NaCl", "setting": "[7]", "result": "Neither Nintedanib HBr nor Nintedanib HCl is compatible"},
      {"measurement": "Body Weight Gain, Delta to Sham (%)", "setting": "[8]; OP 0.05 mg/kg QD", "result": "−18.4", "unit": "%"},
      {"measurement": "Body Weight Gain, Delta to Sham (%)", "setting": "[8]; OP 0.25 mg/kg QD", "result": "−26.7", "unit": "%"},
      {"measurement": "Body Weight Gain, Delta to Sham (%)", "setting": "[8]; OP 0.375 mg/kg QD", "result": "−4.8", "unit": "%"}
    ]},
    {"smiles": "COC(=O)c1ccc2c(c1)NC(=O)/C2=C(\\Nc1ccc(N(C)C(=O)CN2CCN(C)CC2)cc1)c1ccccc1", "note": "[Nintedanib, methyl (3Z)-3-[[4-[methyl-[2-(4-methylpiperazin-1-yl)acetyl]amino]anilino]-phenylmethylidene]-2-oxo-1H-indole-6-carboxylate]", "values": [
      {"measurement": "parenchymal collagen (PSR)", "setting": "parenchymal collagen; inhalation (IN) or oral nintedanib HBr", "result": "not reversed by either inhalation or oral nintedanib treatment"},
      {"measurement": "lung function (elastance)", "setting": "[2]; [14]", "result": "Oral was also significant in improving lung function"},
      {"measurement": "lung αSMA levels", "setting": "[3]; oral and inhaled (IN) nintedanib HBr", "result": "both oral and inhaled routes have a substantial impact reducing αSMA lung levels, with the inhaled low and oral doses showing significance"},
      {"measurement": "lung fibrosis score (Ashcroft)", "setting": "[5]; Inhaled (OP) nintedanib HBr dose groups, bleomycin rats", "result": "dose responsive reduction in fibrosis score"},
      {"measurement": "anti-fibrotic activity compared with oral 60 mg/kg BID", "setting": "[5]; inhaled high dose (0.375 mg/kg OP QD)", "result": "more anti-fibrotic activity as oral"},
      {"measurement": "anti-fibrotic activity compared with oral 60 mg/kg BID", "setting": "[5]; inhaled low dose (0.05 mg/kg OP QD)", "result": "less anti-fibrotic activity than oral"},
      {"measurement": "anti-fibrotic activity compared with oral 60 mg/kg BID", "setting": "[5]; inhaled mid-dose (0.25 mg/kg OP QD)", "result": "equivalent amount of anti-fibrotic activity as oral"},
      {"measurement": "lung IL-1β", "setting": "interleukin-1β (IL-1β); Inhaled (IN) nintedanib HBr dose groups", "result": "dose responsive reduction, with the high dose achieving significance"},
      {"measurement": "lung IL-1β", "setting": "interleukin-1β (IL-1β); [14]", "result": "did not reduce IL-1β levels"},
      {"measurement": "Post-DVS XRPD pattern", "setting": "[6]", "result": "remain Pattern 1"},
      {"measurement": "DVS mass uptake at 90% RH", "setting": "[6]", "result": "ca. 1.7%"},
      {"measurement": "Hygroscopicity", "setting": "[6]", "result": "slightly hygroscopic"},
      {"measurement": "less IT nintedanib to achieve the same lung Cmax as oral delivery", "setting": "[9]; 0.5 mg/kg IT compared to 100 mg/kg oral", "result": "about 200 fold"},
      {"measurement": "Lung Cmax", "setting": "[9]; 2.5 mg/kg IT", "result": 57.5, "unit": "mcg/gram"},
      {"measurement": "plasma AUC as fraction of the 100 mg/kg oral dose", "setting": "[9]; 2.5 mg/kg inhaled (IT)", "result": "about 1/9"},
      {"measurement": "plasma AUC as fraction of the 100 mg/kg oral dose", "setting": "[9]; 10 mg/kg inhaled (IT)", "result": "⅓"},
      {"measurement": "Lung Cmax", "setting": "[9]; 100 mg/kg oral", "result": 12.1, "unit": "mcg/gram"},
      {"measurement": "body weight gain", "setting": "[8]; High dose OP (0.375 mg/kg nintedanib HBr QD)", "result": "weight gain equivalent to sham animals"},
      {"measurement": "body weight gain", "setting": "[8]; Oral (PO) 60 mg/kg nintedanib esylate BID", "result": "gained about half the weight of control animals"}
    ]}
  ]
}
